Source: patent US20220031596A1, “ANTI-AGING AGENT AND ANTI-AGING METHOD” (priority 2018, published 2022)

Experiments:
Assay type in all cases: in vivo, human
[1] = system: mRNA expression level of the sirtuin gene Sirt1; assay: Evaluation of sirtuin 1 (Sirt1) secretion promoting effect (blood Sirt1 mRNA by real-time PCR, 24-week oral ingestion); settings: for mRNA expression level of the sirtuin gene Sirt1 (relative to that of GAPDH), 0 weeks (before ingestion) / mRNA expression level of the sirtuin gene Sirt1 (relative to that of GAPDH), 24 weeks (after ingestion) / mRNA expression level of the sirtuin gene Sirt1 (relative to that of GAPDH), Change rate (24 weeks - 0 weeks): blood, High Dose Group (200 mg/daily, oral), mean±SD; for mRNA expression level of the sirtuin gene Sirt1 (relative to that of GAPDH), 0 weeks (before ingestion): baseline
Experimental: In order to confirm a change in the Sirt1 quantity before and after ingestion of the nicotinamide mononucleotide, a test was conducted on healthy males and females aged 50 to 70 years.
As a sample of Working Example 13, a capsule formulation containing the nicotinamide mononucleotide and starch (200 mg of the nicotinamide mononucleotide in 4 capsules) (manufactured by SHINKOWA PHARMACEUTICAL Co., Ltd.) was used.
(§1) Each group consisting of five healthy males and females aged 50 to 70 years in an unbiased age group ingested the above high dose capsule formulation once a day by 4 capsules for 24 weeks (total 10 subjects, 200 mg/daily ingestion). In order to conduct appropriate evaluations, those who had been regularly using medical products for chronic diseases, those who had been consuming healthy foods that may affect clinical research, and those who were currently participating in other clinical researches or clinical trials or had participated in other clinical researches or clinical trials within the last three months were excluded from the subject for the evaluation. The capsule formulations were ingested at 10 am (between meals and fasting state) together with water or lukewarm water (oral administration).
Measurement of the Sirt1 quantity in the blood was conducted by requesting the measurement to an external public organization according to a usual method. The mRNA expression level of the sirtuin gene Sirt1 was analyzed by a real-time PCR method with the blood collected before the ingestion of the nicotinamide mononucleotide (0 weeks) and after the ingestion of the nicotinamide mononucleotide (24 weeks). Note that, in this analysis, cDNA was purified on the day when the blood sample was collected and stored at −80° C. until all samples were prepared. The samples were then subjected to the real-time PCR method at the same time. The expression level was normalized using GAPDH as a reference gene. Table 12 indicates the numerical values of the mRNA expression level of the sirtuin gene Sirt1 (relative to that of GAPDH). Note that the numerical values represent mean values±standard deviation.

[2] = system: parathyroid hormone concentration in the plasma; assay: Evaluation of parathyroid hormone secretion promoting effect (plasma parathyroid hormone, 24-week oral ingestion); settings: for parathyroid hormone concentration in the plasma, 0 weeks (before ingestion): baseline; for parathyroid hormone concentration in the plasma, 0 weeks (before ingestion) / parathyroid hormone concentration in the plasma, 24 weeks (after ingestion) / parathyroid hormone concentration in the plasma, Change rate (24 weeks - 0 weeks): mean±SD
Experimental: In order to confirm a change in the parathyroid hormone quantity before and after ingestion of the nicotinamide mononucleotide, a test was conducted on healthy males and females aged 50 to 70 years.
As a sample of Working Example 6, a capsule formulation containing the nicotinamide mononucleotide and starch (100 mg (low dose) and 200 mg (high dose) of the nicotinamide mononucleotide in 4 capsules) (manufactured by SHINKOWA PHARMACEUTICAL Co., Ltd.) was used.
as §1, with “above low dose capsule formulation once a day by 4 capsules for 24 weeks (total 10 subjects, a low dose group: 100 mg/daily ingestion). On the other hand, each group consisting of five healthy males and females aged 50 to 70 years in the unbiased age group ingested the above” for “above”, “subjects, a high dose group:” for “subjects,”
Measurement of the parathyroid hormone quantity in the plasma was conducted by requesting the measurement to an external public organization according to a usual method. FIGS. 12a to 12c indicate transitions of the parathyroid hormone concentration (pg/ml) in the plasma for 24 weeks. FIG. 12a represents the transitions of the whole subjects; FIG. 12b represents the transitions of the male subjects; FIG. 12c represents the transitions of the female subjects. Further, FIGS. 13a to 13c indicate change rates (%) of the blood parathyroid hormone concentration up to 24 weeks when the nicotinamide mononucleotide was orally administered to the subjects for 24 weeks. FIG. 13a represents the change rates of the whole subjects; FIG. 13b represents the change rates of the male subjects; FIG. 13c represents the change rates of the female subjects. Further, Table 6 indicates the numerical values of the parathyroid hormone concentration (pg/ml) in the plasma before the ingestion of the nicotinamide mononucleotide (0 weeks) and after the ingestion of the nicotinamide mononucleotide (24 weeks). Note that the numerical values represent mean values±standard deviation.

[3] = system: free thyroxine concentration in the plasma; assay: Evaluation of free thyroxine (T4) secretion promoting effect (plasma free thyroxine, 24-week oral ingestion); settings: for free thyroxine concentration in the plasma, 0 weeks (before ingestion) / free thyroxine concentration in the plasma, 24 weeks (after ingestion) / free thyroxine concentration in the plasma, Change rate (24 weeks - 0 weeks): High Dose Group (200 mg/daily, oral), mean±SD; for free thyroxine concentration in the plasma, 0 weeks (before ingestion): baseline
Experimental: In order to confirm a change in the free thyroxine quantity before and after ingestion of the nicotinamide mononucleotide, a test was conducted on healthy males and females aged 50 to 70 years.
As a sample of Working Example 5, a capsule formulation containing the nicotinamide mononucleotide and starch (200 mg of the nicotinamide mononucleotide in 4 capsules) (manufactured by SHINKOWA PHARMACEUTICAL Co., Ltd.) was used.
as §1
Measurement of the free thyroxine quantity in the plasma was conducted by requesting the measurement to an external public organization according to a usual method. FIGS. 10a to 10c indicate transitions of the free thyroxine concentration (ng/dl) in the plasma for 24 weeks. FIG. 10a represents the transitions of the whole subjects; FIG. 10b represents the transitions of the male subjects; FIG. 10c represents the transitions of the female subjects. Further, FIGS. 11a to 11c indicate change rates (%) of the blood free thyroxine concentration up to 24 weeks when the nicotinamide mononucleotide was orally administered to the subjects for 24 weeks. FIG. 11a represents the change rates of the whole subjects; FIG. 11b represents the change rates of the male subjects; FIG. 11c represents the change rates of the female subjects. Further, Table 5 indicates the numerical values of the free thyroxine concentration (ng/dl) in the plasma before the ingestion of the nicotinamide mononucleotide (0 weeks) and after the ingestion of the nicotinamide mononucleotide (24 weeks). Note that the numerical values represent mean values±standard deviation.

[4] = Female, High Dose Group (200 mg/daily, oral)
[5] = Female, Low Dose Group (100 mg/daily, oral)
[6] = Male, High Dose Group (200 mg/daily, oral)
[7] = Male, Low Dose Group (100 mg/daily, oral)
[8] = Whole Subjects, High Dose Group (200 mg/daily, oral)
[9] = Whole Subjects, Low Dose Group (100 mg/daily, oral)

SMILES: NC(=O)c1ccc[n+]([C@@H]2O[C@H](COP(=O)([O-])O)[C@@H](O)[C@H]2O)c1 [nicotinamide mononucleotide]
- mRNA expression level of the sirtuin gene Sirt1 (relative to that of GAPDH), 0 weeks (before ingestion) ([1]; Female): 1.01 ± 0.17
- mRNA expression level of the sirtuin gene Sirt1 (relative to that of GAPDH), 24 weeks (after ingestion) ([1]; Female): 1.72 ± 0.98
- mRNA expression level of the sirtuin gene Sirt1 (relative to that of GAPDH), Change rate (24 weeks - 0 weeks) ([1]; Female): 1.70 ± 0.90
- mRNA expression level of the sirtuin gene Sirt1 (relative to that of GAPDH), 0 weeks (before ingestion) ([1]; Male): 1.65 ± 0.99
- mRNA expression level of the sirtuin gene Sirt1 (relative to that of GAPDH), 24 weeks (after ingestion) ([1]; Male): 3.69 ± 2.82
- mRNA expression level of the sirtuin gene Sirt1 (relative to that of GAPDH), Change rate (24 weeks - 0 weeks) ([1]; Male): 4.67 ± 5.13
- mRNA expression level of the sirtuin gene Sirt1 (relative to that of GAPDH), 0 weeks (before ingestion) ([1]; Whole Subjects): 1.33 ± 0.75
- mRNA expression level of the sirtuin gene Sirt1 (relative to that of GAPDH), 24 weeks (after ingestion) ([1]; Whole Subjects): 2.71 ± 2.25
- mRNA expression level of the sirtuin gene Sirt1 (relative to that of GAPDH), Change rate (24 weeks - 0 weeks) ([1]; Whole Subjects): 3.18 ± 3.81
- expression level of Sirt1 in the blood, effect of ingestion (in words) ([1]; oral, 200 mg/daily, 24 weeks): increased
- parathyroid hormone concentration in the plasma, 0 weeks (before ingestion) [2, 4]: 384 ± 88 pg/mL
- parathyroid hormone concentration in the plasma, 24 weeks (after ingestion) [2, 4]: 448 ± 114 pg/mL
- parathyroid hormone concentration in the plasma, Change rate (24 weeks - 0 weeks) [2, 4]: 64 ± 65 pg/mL
- parathyroid hormone concentration in the plasma, 0 weeks (before ingestion) [2, 5]: 328 ± 45 pg/mL
- parathyroid hormone concentration in the plasma, 24 weeks (after ingestion) [2, 5]: 394 ± 63 pg/mL
- parathyroid hormone concentration in the plasma, Change rate (24 weeks - 0 weeks) [2, 5]: 66 ± 34 pg/mL
- parathyroid hormone concentration in the plasma, 0 weeks (before ingestion) [2, 6]: 410 ± 108 pg/mL
- parathyroid hormone concentration in the plasma, 24 weeks (after ingestion) [2, 6]: 438 ± 168 pg/mL
- parathyroid hormone concentration in the plasma, Change rate (24 weeks - 0 weeks) [2, 6]: 28 ± 77 pg/mL
- parathyroid hormone concentration in the plasma, 0 weeks (before ingestion) [2, 7]: 344 ± 69 pg/mL
- parathyroid hormone concentration in the plasma, 24 weeks (after ingestion) [2, 7]: 386 ± 108 pg/mL
- parathyroid hormone concentration in the plasma, Change rate (24 weeks - 0 weeks) [2, 7]: 42 ± 73 pg/mL
- parathyroid hormone concentration in the plasma, 0 weeks (before ingestion) [2, 8]: 397 ± 94 pg/mL
- parathyroid hormone concentration in the plasma, 24 weeks (after ingestion) [2, 8]: 443 ± 135 pg/mL
- parathyroid hormone concentration in the plasma, Change rate (24 weeks - 0 weeks) [2, 8]: 46 ± 70 pg/mL
- parathyroid hormone concentration in the plasma, 0 weeks (before ingestion) [2, 9]: 336 ± 56 pg/mL
- parathyroid hormone concentration in the plasma, 24 weeks (after ingestion) [2, 9]: 390 ± 84 pg/mL
- parathyroid hormone concentration in the plasma, Change rate (24 weeks - 0 weeks) [2, 9]: 54 ± 55 pg/mL
- parathyroid hormone concentrations in the plasma, effect of ingestion (in words) ([2]; oral, 100 or 200 mg/daily, 24 weeks, FIGS. 12a-12c, 13a-13c): increased
- free thyroxine concentration in the plasma, 0 weeks (before ingestion) ([3]; Female): 1.10 ± 0.19 ng/dL
- free thyroxine concentration in the plasma, 24 weeks (after ingestion) ([3]; Female): 1.13 ± 0.09 ng/dL
- free thyroxine concentration in the plasma, Change rate (24 weeks - 0 weeks) ([3]; Female): 0.03 ± 012 ng/dL
- free thyroxine concentration in the plasma, 0 weeks (before ingestion) ([3]; Male): 1.15 ± 0.19 ng/dL
- free thyroxine concentration in the plasma, 24 weeks (after ingestion) ([3]; Male): 1.22 ± 0.17 ng/dL
- free thyroxine concentration in the plasma, Change rate (24 weeks - 0 weeks) ([3]; Male): 0.07 ± 0.15 ng/dL
- free thyroxine concentration in the plasma, 0 weeks (before ingestion) ([3]; Whole Subjects): 1.13 ± 0.18 ng/dL
- free thyroxine concentration in the plasma, 24 weeks (after ingestion) ([3]; Whole Subjects): 1.18 ± 0.14 ng/dL
- free thyroxine concentration in the plasma, Change rate (24 weeks - 0 weeks) ([3]; Whole Subjects): 0.05 ± 0.13 ng/dL
- free thyroxine concentrations in the plasma, effect of ingestion (in words) ([3]; oral, 200 mg/daily, 24 weeks, FIGS. 10a-10c, 11a-11c): increased
